According to the supplement of paper PMC4862054:

Assays:
Assay in all cases: normalised response (% of control), CellTiter-Glo; higher = more viable cells (100 = DMSO, 0 = benzethonium chloride kill control)
Details in all cases: incubation time: 72 h
[1] = tested on: BT-474
Procedure: (§1)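 DSRT, 72 h incubation, CellTox Green / CellTiter-Glo readout. Signal is normalised to DMSO and benzethonium chloride controls. Value is the normalised response at the highest dose.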

[2] = tested on: BT-549
Procedure: as §1

[3] = tested on: CAL-120
Procedure: as §1

[4] = tested on: CAL-148
Procedure: as §1

[5] = tested on: CAL-51
Procedure: as §1

[6] = tested on: CAL-85-1
Procedure: as §1

[7] = tested on: DU-4475
Procedure: as §1

[8] = tested on: HCC1143
Procedure: as §1

[9] = tested on: HCC1599
Procedure: as §1

[10] = tested on: HCC1937
Procedure: as §1

[11] = tested on: HDQ-P1
Procedure: as §1

[12] = tested on: Hs578T
Procedure: as §1

[13] = tested on: MCF-10A
Procedure: as §1

[14] = tested on: MDA-MB-231
Procedure: as §1

[15] = tested on: MDA-MB-436
Procedure: as §1

[16] = tested on: MDA-MB-453
Procedure: as §1

[17] = tested on: MDA-MB-468
Procedure: as §1

[18] = tested on: MFM-223
Procedure: as §1

[19] = tested on: SK-BR-3
Procedure: as §1

| Compound | normalised response [1] | normalised response [2] | normalised response [3] | normalised response [4] | normalised response [5] | normalised response [6] | normalised response [7] | normalised response [8] | normalised response [9] | normalised response [10] | normalised response [11] | normalised response [12] | normalised response [13] | normalised response [14] | normalised response [15] | normalised response [16] | normalised response [17] | normalised response [18] | normalised response [19] |
| --- | --- | --- | --- | --- | --- | --- | --- | --- | --- | --- | --- | --- | --- | --- | --- | --- | --- | --- | --- |
| CNCc1ccc(-c2[nH]c3cc(F)cc4c3c2CCNC4=O)cc1 [Rucaparib] (10000 nM) | 80.9% | 81.8% | 97.8% | 71.2% | 93.3% | 93.7% | 74% | 94.5% | 82.2% | 79.7% | 85.3% | 93% | 82.8% | 75.7% | 85.7% | 117% | 68.9% | 91% | 67.7% |
| CN(C)/N=N/c1[nH]cnc1C(N)=O [Dacarbazine] (10000 nM) | 102% | 99.4% | 86% | 103% | 135% | 101% | 107% | 109% | 109% | 96.5% | 93.4% | 100% | 102% | 111% | 108% | 99.9% | 99.8% | 103% | 111% |
| C#Cc1cccc(Nc2ncnc3cc(OCCOC)c(OCCOC)cc23)c1 [Erlotinib] (10000 nM) | 75.9% | 75.4% | 79.8% | 69.7% | 77% | 40.2% | 101% | 79.7% | 92.7% | 76.4% | 66.1% | 85.8% | 30.9% | 83.4% | 79% | 90% | 59.1% | 78.1% | 48% |
| CO[C@H]1/C=C\C=C(/C)C(=O)NC2=CC(=O)C(NCCN(C)C)=C(C[C@@H](C)C[C@H](OC)[C@H](O)[C@@H](C)/C=C(\C)[C@@H]1OC(N)=O)C2=O [Alvespimycin] (1000 nM) | 28% | 39.5% | 47.8% | 26.3% | 16.2% | 18.1% | 0.05% | 33.1% | 58.8% | 21.6% | 22.4% | 35.4% | 15.4% | 19% | 44.9% | 28.1% | 34.2% | 39.2% | 36% |
| C[C@]12CC[C@@H]3c4ccc(O)cc4C[C@@H](CCCCCCCCC[S+]([O-])CCCC(F)(F)C(F)(F)F)[C@H]3[C@@H]1CC[C@@H]2O (stereo not given in full) [Fulvestrant] (1000 nM) | 99% | 99.3% | 105% | 104% | 124% | 95.4% | 110% | 106% | 103% | 94% | 101% | 103% | 101% | 98.9% | 105% | 95.6% | 96% | 99.3% | 104% |
| Cc1ccc(C(=O)Nc2ccc(CN3CCN(C)CC3)c(C(F)(F)F)c2)cc1C#Cc1cnc2cccnn12 [Ponatinib] (1000 nM) | 30.6% | 36% | 41.2% | 85.4% | 47% | 58% | 77.4% | 86% | 108% | 60.6% | 36.5% | 53.9% | 34.4% | 15.5% | 64.7% | 77.3% | 69.2% | 43.7% | 68.3% |
| N[C@@H](CSC(c1ccccc1)(c1ccccc1)c1ccccc1)C(=O)O [S-trityl-L-cysteine] (40000 nM) | 89.6% | 106% | 101% | 100% | 123% | 101% | 92.3% | 92.8% | 103% | 93.5% | 102% | 89.6% | 104% | 91.1% | 95.3% | 86.2% | 104% | 92% | 99% |
| Clc1ccc(Nc2nnc(Cc3ccncc3)c3ccccc23)cc1 [Vatalanib] (10000 nM) | 94.5% | 95.5% | 104% | 105% | 115% | 106% | 95.2% | 98.3% | 91.5% | 96% | 98.4% | 106% | 110% | 101% | 109% | 90.3% | 75.2% | 110% | 95.5% |
| Cc1ccc(-n2nc(C(C)(C)C)cc2NC(=O)Nc2ccc(OCCN3CCOCC3)c3ccccc23)cc1 [Doramapimod] (10000 nM) | 80.3% | 104% | 94.8% | 75.7% | 105% | 96.1% | 92.7% | 91.3% | 68.7% | 77.7% | 82.3% | 97.8% | 94.2% | 87.5% | 99.7% | 82.9% | 72.5% | 70.2% | 69.5% |
| C=C(c1ccc(C(=O)O)cc1)c1cc2c(cc1C)C(C)(C)CCC2(C)C [Bexarotene] (10000 nM) | 82.1% | 99.9% | 112% | 79.9% | 98.3% | 101% | 100% | 101% | 59.5% | 96.6% | 106% | 80.8% | 82.8% | 105% | 95.9% | 110% | 110% | 95.1% | 72.1% |
| O=P1(NCCCl)OCCCN1CCCl (stereo not given) [Ifosfamide] (10000 nM) | 90.3% | 99.3% | 96.3% | 86.7% | 101% | 96.3% | 87.1% | 96.8% | 110% | 96.5% | 94% | 98.7% | 91.6% | 90.5% | 92.5% | 94.5% | 93.7% | 90% | 93.1% |
| C[C@@H](Oc1cc(-c2cnn(C3CCNCC3)c2)cnc1N)c1c(Cl)ccc(F)c1Cl [Crizotinib] (1000 nM) | 84.9% | 93.1% | 104% | 99.3% | 108% | 92.7% | 103% | 102% | 100% | 101% | 90.7% | 95.9% | 102% | 83.9% | 102% | 92.2% | 88.1% | 97.4% | 104% |
| Cc1ccc(C(=O)N(CCCN)[C@@H](c2oc3cc(Cl)ccc3c(=O)c2Cc2ccccc2)C(C)C)cc1 (100 nM) | 95.6% | 99.6% | 103% | 88.9% | 72.3% | 97.8% | 92.8% | 96% | 97.5% | 95.5% | 104% | 100% | 96.8% | 93% | 88.3% | 91.6% | 101% | 97.2% | 91.9% |
| Cn1c(Nc2ccc(C(F)(F)F)cc2)nc2cc(Oc3ccnc(-c4ncc(C(F)(F)F)[nH]4)c3)ccc21 [RAF265] (1000 nM) | 79.6% | 68.7% | 67.2% | 99.9% | 52.1% | 40.7% | 71.8% | 94.2% | 73.7% | 63.7% | 47.2% | 78.2% | 86.6% | 83.5% | 67.7% | 95.8% | 50.8% | 48% | 92.1% |
| COc1cc2nccc(Oc3ccc(NC(=O)C4(C(=O)Nc5ccc(F)cc5)CC4)cc3)c2cc1OC [Cabozantinib] (1000 nM) | 83.8% | 104% | 95.2% | 104% | 111% | 107% | 102% | 95.3% | 102% | 95.4% | 94% | 89% | 94.6% | 79.2% | 101% | 95.4% | 87.2% | 64.6% | 107% |
| N.N.[Cl][Pt][Cl] [Cisplatin] (1000 nM) | 94% | 101% | 105% | 96.9% | 87.5% | 104% | 94.7% | 103% | 101% | 106% | 95.3% | 100% | 94% | 96.3% | 100% | 106% | 105% | 99.9% | 92.3% |
| O=C1CCC(N2C(=O)c3ccccc3C2=O)C(=O)N1 (stereo not given) [Thalidomide] (10000 nM) | 94.6% | 96.7% | 100% | 92.4% | 84.7% | 93.5% | 93.3% | 94.7% | 101% | 98% | 98.2% | 96.8% | 98.8% | 94.2% | 96% | 97.2% | 91.6% | 100% | 106% |
| CC1(C)NC(=O)N(c2ccc([N+](=O)[O-])c(C(F)(F)F)c2)C1=O [Nilutamide] (10000 nM) | 103% | 93.9% | 103% | 112% | 76.1% | 99.7% | 97.4% | 101% | 106% | 94.3% | 95.1% | 104% | 104% | 105% | 114% | 102% | 111% | 104% | 108% |
| CN[C@@H]1C[C@H]2O[C@@](C)([C@@H]1OC)n1c3ccccc3c3c4c(c5c6ccccc6n2c5c31)C(=O)N[C@H]4O [UCN-01] (10000 nM) | 4.43% | 0.77% | 7.18% | 9.37% | 2.83% | 0.55% | 3.81% | 8.19% | 13.7% | 7.74% | 2.74% | 2.67% | 0.69% | 1.54% | 7.46% | 5.51% | 1.36% | 24.1% | 2.06% |
| Cn1c(CCCC(=O)O)nc2cc(N(CCCl)CCCl)ccc21 [Bendamustine] (10000 nM) | 99.6% | 101% | 108% | 110% | 132% | 107% | 101% | 111% | 96.6% | 108% | 113% | 103% | 114% | 109% | 105% | 120% | 116% | 106% | 105% |
